≈ marks a conversion by molar mass, not a printed value.
Assays:
Test in all cases: MIC by the agar dilution method
Format in all cases: cell-based
C. diphtheriae Tronto = conditions: Corynebacterium diphtheriae, 10^8 CFU/ml, Trypticase soy agar, 37° C. overnight
Procedure: (§1) The MICs of the test compound were determined by the agar dilution method. Thus, 1.0 ml portions of serially diluted aqueous solutions of the test compound were poured in petri dishes and admixed with 9.0 ml portions of Trypticase soy agar. Then, a suspension (about 10^8 CFU/ml) of each test strain was smeared on each agar plate and incubated at 37° C. overnight. The lowest concentration of the test compound inhibiting growth of the test strain 100% was regarded as the minimal inhibitory concentration, MIC.

C. freundii IFO 12681 = conditions: Citrobacter freundii, IFO12681, 10^8 CFU/ml, Trypticase soy agar, 37° C. overnight
Procedure: as §1

C. freundii TN 474 = conditions: Citrobacter freundii, TN474, 10^8 CFU/ml, Trypticase soy agar, 37° C. overnight
Procedure: as §1

E. cloacae IFO 12937 = conditions: Enterobacter cloacae, IFO12937, 10^8 CFU/ml, Trypticase soy agar, 37° C. overnight
Procedure: as §1

E. cloacae TN 583 = conditions: Enterobacter cloacae, TN583, 10^8 CFU/ml, Trypticase soy agar, 37° C. overnight
Procedure: as §1

E. coli NIHJ JC-2 = conditions: Escherichia coli, NIHJJC2, 10^8 CFU/ml, Trypticase soy agar, 37° C. overnight
Procedure: as §1

E. coli NIHJ O-111 = conditions: Escherichia coli, NIHJO111, 10^8 CFU/ml, Trypticase soy agar, 37° C. overnight
Procedure: as §1

E. coli NIHJ T-7 = conditions: Escherichia coli, NIHJT7, 10^8 CFU/ml, Trypticase soy agar, 37° C. overnight
Procedure: as §1

K. oxytoca TN 1711 = conditions: Klebsiella oxytoca, TN1711, 10^8 CFU/ml, Trypticase soy agar, 37° C. overnight
Procedure: as §1

K. pneumoniae DT = conditions: Klebsiella pneumoniae, 10^8 CFU/ml, Trypticase soy agar, 37° C. overnight
Procedure: as §1

M. morganii IFO 3168 = conditions: Morganella morganii, IFO3168, 10^8 CFU/ml, Trypticase soy agar, 37° C. overnight
Procedure: as §1

P. mirabilis IFO 3849 = conditions: Proteus mirabilis, IFO3849, 10^8 CFU/ml, Trypticase soy agar, 37° C. overnight
Procedure: as §1

P. vulgaris IFO 3988 = conditions: Proteus vulgaris, IFO3988, 10^8 CFU/ml, Trypticase soy agar, 37° C. overnight
Procedure: as §1

S. aureus 1840 = conditions: Staphylococcus aureus, 10^8 CFU/ml, Trypticase soy agar, 37° C. overnight
Procedure: as §1

S. aureus 308A-1 = conditions: Staphylococcus aureus, 308A1, 10^8 CFU/ml, Trypticase soy agar, 37° C. overnight
Procedure: as §1

S. aureus FDA 209P = conditions: Staphylococcus aureus, FDA209P, 10^8 CFU/ml, Trypticase soy agar, 37° C. overnight
Procedure: as §1

S. marcescens IFO 12648 = conditions: Serratia marcescens, IFO12648, 10^8 CFU/ml, Trypticase soy agar, 37° C. overnight
Procedure: as §1

S. mitis America = conditions: Streptococcus mitis, 10^8 CFU/ml, Trypticase soy agar, 37° C. overnight
Procedure: as §1

S. pneumoniae Type I = conditions: Streptococcus pneumoniae, 10^8 CFU/ml, Trypticase soy agar, 37° C. overnight
Procedure: as §1

S. pyogenes E-14 = conditions: Streptococcus pyogenes, E14, 10^8 CFU/ml, Trypticase soy agar, 37° C. overnight
Procedure: as §1

S. pyogenes S-8 = conditions: Streptococcus pyogenes, S8, 10^8 CFU/ml, Trypticase soy agar, 37° C. overnight
Procedure: as §1

## C[C@@H](O)[C@H]1C(=O)N2C(C(=O)O)=C3[C@@H](CCO)CCO[C@@H]3[C@H]12 [Example 19]
C. diphtheriae Tronto
  MIC: 0.2 µg/mL (≈ 0.673 µM)
C. freundii IFO 12681
  MIC: 0.2 µg/mL (≈ 0.673 µM)
C. freundii TN 474
  MIC: 6.25 µg/mL (≈ 21 µM)
E. cloacae IFO 12937
  MIC: 6.25 µg/mL (≈ 21 µM)
E. cloacae TN 583
  MIC: 12.5 µg/mL (≈ 42 µM)
E. coli NIHJ JC-2
  MIC: < 0.1 µg/mL
E. coli NIHJ O-111
  MIC: < 0.1 µg/mL
E. coli NIHJ T-7
  MIC: 1.56 µg/mL (≈ 5.25 µM)
K. oxytoca TN 1711
  MIC: 1.56 µg/mL (≈ 5.25 µM)
K. pneumoniae DT
  MIC: 0.2 µg/mL (≈ 0.673 µM)
M. morganii IFO 3168
  MIC: 0.78 µg/mL (≈ 2.62 µM)
P. mirabilis IFO 3849
  MIC: 0.39 µg/mL (≈ 1.31 µM)
P. vulgaris IFO 3988
  MIC: 0.78 µg/mL (≈ 2.62 µM)
S. aureus 1840
  MIC: 0.2 µg/mL (≈ 0.673 µM)
S. aureus 308A-1
  MIC: < 0.1 µg/mL
S. aureus FDA 209P
  MIC: < 0.1 µg/mL
S. marcescens IFO 12648
  MIC: 0.78 µg/mL (≈ 2.62 µM)
S. mitis America
  MIC: < 0.1 µg/mL
S. pneumoniae Type I
  MIC: < 0.1 µg/mL
S. pyogenes E-14
  MIC: < 0.1 µg/mL
S. pyogenes S-8
  MIC: < 0.1 µg/mL
